How the values were obtained:
NQO1 [1] = experiment: NQO1 expression induction test in mouse kidney (single administration); format: in vivo; conditions: Mus musculus, po, 6 h, BALB/c mouse kidney, 6 hours after administration, ratio to control group
Summary of the method: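 Female BALB/c mice received a single oral dose of compound in 0.5% methylcellulose, with untreated mice as controls. Six hours later, left-kidney NQO1 mRNA was measured by SYBR real-time RT-PCR normalised to GAPDH. Induction was expressed as the ratio of mean treated to mean control expression.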

[2] = target: T1, GST fusion human Keap1 (amino acid residue: 325-624) protein (Homo sapiens, UniProt Q14145); experiment: Keap1-Nrf2 binding inhibition test (fluorescence polarization); conditions: compound concentration of 100 nM; read-out: inhibition rate
T1 construct: GST fusion human Keap1 (amino acid residue: 325-624) protein; purchased Protein tech Ag0779
Summary of the method: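 Fluorescence polarization with FITC-labelled Nrf2 peptide (FITC-Ahx-LDEETGEFL-NH2) and GST-human Keap1 (325-624) in 20 mM Tris pH 7.5, 150 mM NaCl, 0.05% Tween 20, 5 mM DTT, BSA; 30 min at room temperature, ex 482/em 530 nm. Percent inhibition at 100 nM compound, Keap1-free wells = 100%.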

[3] = Metabolism test using human liver microsome fractions; format: in vitro ADME; conditions: human liver microsomes, test compound 10 μmol/L, NADPH and UDP-glucuronic acid, 37° C.
Summary of the method: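 Human or monkey liver microsomes (1 mg protein) with NADPH-regenerating system plus UDP-glucuronic acid/UGT mix, 37 °C; compound at 10 μmol/L final. Samples at 0–30 min quenched in acetonitrile, UV-HPLC; elimination rate (pmol/min/mg-P) from linear slope of residual amount over time.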

NQO1 [4] = experiment: NQO1 enzyme induction test (in vitro) in Hepa1c1c7 cells; format: cell-based; conditions: Mus musculus, Hepa-1c1c7, 48 h, concentration to elevate the NQO1 activity by 1.5 times, about 48 hours, read-out: EC150
Summary of the method: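 Mouse Hepa1c1c7 cells treated about 48 h with compound (0.1% DMSO final), then lysed. NQO1 activity read as MTT reduction at 540 nm with menadione substrate, 5 min at room temperature, and corrected for cell number by CellTiter-Glo. EC150 is the concentration raising NQO1 activity 1.5-fold.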

T1 sequence (Q14145 325-624): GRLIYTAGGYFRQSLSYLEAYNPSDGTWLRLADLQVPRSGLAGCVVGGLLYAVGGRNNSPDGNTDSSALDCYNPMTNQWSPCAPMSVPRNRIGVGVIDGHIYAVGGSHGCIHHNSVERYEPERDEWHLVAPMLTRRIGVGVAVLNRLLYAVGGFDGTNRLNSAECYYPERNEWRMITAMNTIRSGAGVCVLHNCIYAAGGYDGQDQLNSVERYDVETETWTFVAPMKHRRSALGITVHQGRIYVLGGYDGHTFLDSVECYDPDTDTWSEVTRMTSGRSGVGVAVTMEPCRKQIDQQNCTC

## CC[C@@H]1CN(Cc2cc(C(c3ccc4c(nnn4C)c3C)C(C)(C)C(=O)O)ccc2C)Cc2cc3ccccc3nc2O1 (stereo partly drawn) [Example 9-(b), 3-(1,4-dimethyl-1H-benzo[d][1,2,3]triazol-5-yl)-3-(3-(((R)-2-ethyl-2,3-dihydro-[1,4]oxazepino[7,6-b]quinolin-4 (5H)-yl)methyl)-4-methylphenyl)-2,2-dimethylpropanoic Acid]
NQO1 [1]
  fold induction at 30 mg/kg: 3 to 6
[2]
  inhibition at 0.1 µM: ≥ 50%
[3]
  Human metabolic rate: D (200≤metabolic rate<250 pmol/min/me protein)
NQO1 [4]
  EC (1.5-fold NQO1 activity): 0.0005 to 0.005 µM

## CC[C@@H]1CN(Cc2cc(C(c3ccc4c(nnn4C)c3C)C(C)(C)C(=O)O)ccc2C)Cc2cc3ccncc3cc2O1 (stereo partly drawn) [Example 52-(b), 3-(1,4-dimethyl-1H-benzo[d][1,2, 3]triazol-5-yl)-3-(3-(((R)-2-ethyl-2,3-dihydro-[1,4]oxazepino[6,7-g]isoquinolin-4 (5H)-yl)methyl)-4-methylphenyl)-2,2-dimethylpropanoic Acid]
NQO1 [1]
  fold induction at 30 mg/kg: > 6
[2]
  inhibition at 0.1 µM: ≥ 50%
[3]
  Human metabolic rate: C (150≤metabolic rate<200 pmol/min/mg protein)
NQO1 [4]
  EC (1.5-fold NQO1 activity): 0.0005 to 0.005 µM

## CC[C@@H]1CN(Cc2cc(C(c3ccc4c(nnn4C)c3C)C(C)(C)C(=O)O)ccc2C)Cc2cc3c(Cl)cccc3cc2O1 (stereo partly drawn) [Example 68-(b), 3-(3-(((R)-7-chloro-2-ethyl-2,3-dihydronaphtho[2,3-f][1,4]oxazepin-4 (5H)-yl)methyl)-4-methylphenyl)-3-(1,4-dimethyl-1H-benzo[d][1,2,3]triazol-5-yl)-2,2-dimethylpropanoic Acid]
NQO1 [1]
  fold induction at 20 mg/kg: 3 to 6
[2]
  inhibition at 0.1 µM: ≥ 50%
[3]
  Human metabolic rate: A (metabolic rate<100 pmol/min/mg protein)
NQO1 [4]
  EC (1.5-fold NQO1 activity): 0.005 to 0.05 µM

## CC[C@@H]1CN(Cc2cc(C(c3ccc4c(nnn4C)c3C)C(C)(C)C(=O)O)ccc2C)Cc2c(ccc3ccccc23)O1 (stereo partly drawn) [Example 16-(b), 3-(1,4-dimethyl-1H-benzo[d][1,2,3]triazol-5-yl)-3-(3-(((R)-4-ethyl-3,4-dihydronaphtho[1,2-f][1,4]oxazepin-2(1H)-yl)methyl)-4-methylphenyl)-2,2-dimethylpropanoic Acid]
NQO1 [1]
  fold induction at 30 mg/kg: ≤ 3
[2]
  inhibition at 0.1 µM: ≥ 50%
[3]
  Human metabolic rate: E (metabolic rate≥250 pmol/min/mg protein)
NQO1 [4]
  EC (1.5-fold NQO1 activity): 0.05 to 0.5 µM

## CC[C@@H]1CN(Cc2cc(C(c3ccc4c(nnn4C)c3C)C(C)(C)C(=O)O)ccc2C)Cc2cc3c(cc2O1)CCC3 (stereo partly drawn) [Example 3-(b), 3-(1,4-dimethyl-1H-benzo[d][1,2,3]triazol-5-yl)-3-(3-(((R)-2-ethyl-2,3,5,7,8,9-hexahydro-4H-indeno[5,6-f][1,4]oxazepin-4-yl)methyl)-4-methylphenyl)-2,2-dimethylpropanoic Acid]
NQO1 [1]
  fold induction at 30 mg/kg: > 6
[2]
  inhibition at 0.1 µM: ≥ 50%
[3]
  Human metabolic rate: C (150≤metabolic rate<200 pmol/min/mg protein)
NQO1 [4]
  EC (1.5-fold NQO1 activity): 0.005 to 0.05 µM

## CC[C@@H]1CN(Cc2cc(C(c3ccc4c(nnn4C)c3C)C(C)(C)C(=O)O)ccc2C)Cc2cc3ncccc3cc2O1 (stereo partly drawn) [Example 12-(b), 3-(1,4-dimethyl-1H-benzo[d][1,2,3]triazol-5-yl)-3-(3-(((R)-2-ethyl-2,3-dihydro-[1,4]oxazepino[7,6-g]quinolin-4 (5H)-yl)methyl)-4-methylphenyl)-2,2-dimethylpropanoic Acid]
NQO1 [1]
  fold induction at 30 mg/kg: > 6
[2]
  inhibition at 0.1 µM: ≥ 50%
[3]
  Human metabolic rate: D (200≤metabolic rate<250 pmol/min/me protein)
NQO1 [4]
  EC (1.5-fold NQO1 activity): 0.0005 to 0.005 µM

## CC[C@@H]1CN(Cc2cc(C(c3ccc4c(nnn4C)c3C)C(C)(C)C(=O)O)ccc2C)Cc2cc3c(cc2O1)SCC3 (stereo partly drawn) [Example 73-(b), 3-(1,4-dimethyl-1H-benzo[d][1,2,3]triazol-5-yl)-3-(3-(((R)-2-ethyl-2,3,7,8-tetrahydrothieno[2′,3′:4,5]benzo[1,2-f][1,4]oxazepin-4(5H)-yl)methyl)-4-methylphenyl)-2,2-dimethylpropanoic Acid]
NQO1 [1]
  fold induction at 20 mg/kg: > 6
[2]
  inhibition at 0.1 µM: ≥ 50%
[3]
  Human metabolic rate: C (150≤metabolic rate<200 pmol/min/mg protein)
NQO1 [4]
  EC (1.5-fold NQO1 activity): 0.005 to 0.05 µM

## CC[C@@H]1CN(Cc2cc(C(c3ccc4c(nnn4C)c3C)C(C)(C)C(=O)O)ccc2C)Cc2cc3c(cc2O1)S(=O)(=O)CC3 (stereo partly drawn) [Example 74-(b), 3-(1,4-dimethyl-1H-benzo[d][1,2,3]triazol-5-yl)-3-(3-(((R)-2-ethyl-9,9-dioxide-2,3,7,8-tetrahydrothieno[2′,3′:4,5]benzo[1,2-f][1,4]oxazepin-4(5H)-yl)methyl)-4-methylphenyl)-2,2-dimethylpropanoic Acid]
NQO1 [1]
  fold induction at 20 mg/kg: 3 to 6
[2]
  inhibition at 0.1 µM: ≥ 50%
[3]
  Human metabolic rate: B (100≤metabolic rate<150 pmol/min/mg protein)
NQO1 [4]
  EC (1.5-fold NQO1 activity): 0.0005 to 0.005 µM

## CC[C@@H]1CN(Cc2cc(C(c3ccc4c(nnn4C)c3C)C(C)(C)C(=O)O)ccc2C)Cc2cc3cn(C)nc3cc2O1 (stereo partly drawn) [Example 51-(b), 3-(1,4-dimethyl-1H-benzo[d][1,2,3]triazol-5-yl)-3-(3-(((R)-8-ethyl-2-methyl-2,5,7,8-tetrahydro-6H-[1,4]oxazepino[6,7-f]indazol-6-yl)methyl)-4-methylphenyl)-2,2-dimethylpropanoic Acid]
NQO1 [1]
  fold induction at 30 mg/kg: > 6
[2]
  inhibition at 0.1 µM: ≥ 50%
[3]
  Human metabolic rate: B (100≤metabolic rate<150 pmol/min/mg protein)
NQO1 [4]
  EC (1.5-fold NQO1 activity): 0.0005 to 0.005 µM

## CC[C@@H]1CN(Cc2cc(C(c3ccc4c(nnn4C)c3C)C(C)(C)C(=O)O)ccc2C)Cc2ccc3c(c2O1)CCC3 (stereo partly drawn) [Example 6-(b), 3-(1,4-dimethyl-1H-benzo[d][1,2,3]triazol-5-yl)-3-(3-(((R)-2-ethyl-2,3,5,8,9,10-hexahydro-4H-indeno[5,4-f][1,4]oxazepin-4-yl)methyl)-4-methylphenyl)-2,2-dimethylpropanoic Acid]
NQO1 [1]
  fold induction at 30 mg/kg: 3 to 6
[2]
  inhibition at 0.1 µM: ≥ 50%
[3]
  Human metabolic rate: B (100≤metabolic rate<150 pmol/min/mg protein)
NQO1 [4]
  EC (1.5-fold NQO1 activity): 0.005 to 0.05 µM

## CC[C@@H]1CN(Cc2cc(C(c3ccc4c(nnn4C)c3C)C(C)(C)C(=O)O)ccc2C)Cc2c(ccc3cccnc23)O1 (stereo partly drawn) [Example 17-(b), 3-(1,4-dimethyl-1H-benzo[d][1,2,3]triazol-5-yl)-3-(3-(((R)-8-ethyl-8,9-dihydro-[1,4]oxazepino[7,6-h]quinolin-10 (11H)-yl)methyl)-4-methylphenyl)-2,2-dimethylpropanoic Acid]
NQO1 [1]
  fold induction at 30 mg/kg: 3 to 6
[2]
  inhibition at 0.1 µM: ≥ 50%
[3]
  Human metabolic rate: E (metabolic rate≥250 pmol/min/mg protein)
NQO1 [4]
  EC (1.5-fold NQO1 activity): 0.005 to 0.05 µM

## CC[C@@H]1CN(Cc2cc(C(c3ccc4c(nnn4C)c3C)C(C)(C)C(=O)O)ccc2C)Cc2cc3c(cc2O1)OC(F)(F)O3 (stereo partly drawn) [Example 1-(b), 3-(1,4-dimethyl-1H-benzo[d][1,2,3]triazol-5-yl)-3-(3-(((R)-6-ethyl-2,2-difluoro-6,7-dihydro-[1,3]dioxolo[4′,5′:4,5]benzo[1,2-f][1,4]oxazepin-8(9H)-yl)methyl)-4-methylphenyl)-2,2-dimethylpropanoic Acid]
NQO1 [1]
  fold induction at 30 mg/kg: 3 to 6
[2]
  inhibition at 0.1 µM: ≥ 50%
[3]
  Human metabolic rate: C (150≤metabolic rate<200 pmol/min/mg protein)
NQO1 [4]
  EC (1.5-fold NQO1 activity): 0.0005 to 0.005 µM

## CC[C@@H]1CN(Cc2cc(C(c3ccc4c(nnn4C)c3C)C(C)(C)C(=O)O)ccc2C)Cc2cc3c(cc2O1)CCCC3 (stereo partly drawn) [Example 4-(b), 3-(1,4-dimethyl-1H-benzo[d][1,2,3]triazol-5-yl)-3-(3-(((R)-2-ethyl-2,3,7,8,9,10-hexahydronaphtho[2,3-f][1,4]oxazepin-4(5H)-yl)methyl)-4-methylphenyl)-2,2-dimethylpropanoic Acid]
NQO1 [1]
  fold induction at 30 mg/kg: > 6
[2]
  inhibition at 0.1 µM: ≥ 50%
[3]
  Human metabolic rate: B (100≤metabolic rate<150 pmol/min/mg protein)
NQO1 [4]
  EC (1.5-fold NQO1 activity): 0.005 to 0.05 µM

## CC[C@@H]1CN(Cc2cc(C(c3ccc4c(nnn4C)c3C)C(C)(C)C(=O)O)ccc2C)Cc2cc3nccc(Cl)c3cc2O1 (stereo partly drawn) [Example 69, 3-(3-(((R)-10-chloro-2-ethyl-2,3-dihydro-[1,4]oxazepino[7,6-g]quinolin-4 (5H)-yl)methyl)-4-methylphenyl)-3-(1,4-dimethyl-1H-benzo[d][1,2, 3]triazol-5-yl)-2,2-dimethylpropanoic Acid]
NQO1 [1]
  fold induction at 20 mg/kg: 3 to 6
[2]
  inhibition at 0.1 µM: ≥ 50%
[3]
  Human metabolic rate: D (200≤metabolic rate<250 pmol/min/me protein)
NQO1 [4]
  EC (1.5-fold NQO1 activity): < 0.0005 µM

## CC[C@@H]1CN(Cc2cc(C(c3ccc4c(nnn4C)c3C)C(C)(C)C(=O)O)ccc2C)Cc2cc3c(cc2O1)OC(C)(C)O3 (stereo partly drawn) [Example 61-(b), 3-(1,4-dimethyl-1H-benzo[d][1,2,3)triazol-5-yl)-3-(3-(((R)-6-ethyl-2,2-dimethyl-6,7-dihydro-(1,3]dioxolo[4′,5′:4,5]benzo[1,2-f][1,4]oxazepin-8(9H)-yl)methyl)-4-methylphenyl)-2,2-dimethylpropanoic Acid]
NQO1 [1]
  fold induction at 30 mg/kg: 3 to 6
[2]
  inhibition at 0.1 µM: ≥ 50%
[3]
  Human metabolic rate: A (metabolic rate<100 pmol/min/mg protein)
NQO1 [4]
  EC (1.5-fold NQO1 activity): 0.005 to 0.05 µM
